# Test results: patent US10023559B2 (Hoffmann-La Roche Inc., priority 2014, dated 2018)
# What was measured:
# rat TAAR1 = rat TAAR1 (Rattus norvegicus (Rat), UniProt Q923Y9); test: Radioligand binding assay on rat TAAR1; settings: read-out: Ki(μM) rat; rat TAAR1, HEK-293 membranes, second value of cell pair mouse/rat
# Procedure: Membrane Preparation and Radioligand Binding.
# HEK-293 cells stably expressing rat TAAR1 were maintained at 37° C. and 5% CO2 in DMEM high glucose medium, containing fetal calf serum (10%, heat inactivated for 30 min at 56° C.), penicillin/streptomycin (1%), and 375 μg/ml geneticin (Gibco). Cells were released from culture flasks using trypsin/EDTA, harvested, washed twice with ice-cold PBS (without Ca^2+ and Mg^2+), pelleted at 1,000 rpm for 5 min at 4° C., frozen and stored at −80° C. Frozen pellets were suspended in 20 ml HEPES-NaOH (20 mM, pH 7.4) containing 10 mM EDTA and homogenized with a Polytron (PT 6000, Kinematica) at 14,000 rpm for 20 s. The homogenate was centrifuged at 48,000×g for 30 min at 4° C. Subsequently, the supernatant was removed and discarded, and the pellet resuspended in 20 ml HEPES-NaOH (20 mM, pH 7.4) containing 0.1 mM EDTA using the Polytron (20 s at 14,000 rpm). This procedure was repeated and the final pellet resuspended in HEPES-NaOH containing 0.1 mM EDTA and homogenized using the Polytron. Typically, aliquots of 2 ml membrane portions were stored at −80° C. With each new membrane batch the dissociation constant (Kd) was determined via a saturation curve. […] Nonspecific binding was defined as the amount of [H]—(S)-4-[(ethyl-phenyl-amino)-methyl]-4,5-dihydro-oxazol-2-ylamine bound in the presence of 10 M unlabeled ligand. All compounds were tested at a broad range of concentrations (10 pM to 10 μM) in duplicates. […] The 96 deep well plates were incubated for 1 hr at 4° C. Incubations were terminated by rapid filtration through Unifilter-96 plates (Packard Instrument Company) and glass filters GF/C (Perkin Elmer) presoaked for 1 hr in polyethylenimine (0.3%) and washed 3 times with 1 ml of cold binding buffer. After addition of 45 μl of Microscint 40 (PerkinElmer) the Unifilter-96 plate was sealed and after 1 hr the radioactivity counted using a TopCount Microplate Scintillation Counter (Packard Instrument Company).
# mouse TAAR1 = mouse TAAR1 (Mus musculus (Mouse), UniProt Q923Y8); test: Radioligand binding assay on mouse TAAR1
# Sequence of mouse TAAR1 (Q923Y8 whole entry): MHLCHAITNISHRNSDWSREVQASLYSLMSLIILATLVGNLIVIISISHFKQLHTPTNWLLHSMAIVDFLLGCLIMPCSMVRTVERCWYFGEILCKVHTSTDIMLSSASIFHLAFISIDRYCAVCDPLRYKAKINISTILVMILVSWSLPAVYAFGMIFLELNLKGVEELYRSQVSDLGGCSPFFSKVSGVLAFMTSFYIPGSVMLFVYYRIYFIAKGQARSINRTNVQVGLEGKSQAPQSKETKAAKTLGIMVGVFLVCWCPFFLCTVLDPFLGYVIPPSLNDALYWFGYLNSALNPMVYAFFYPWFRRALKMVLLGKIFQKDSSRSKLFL
# Sequence of rat TAAR1 (Q923Y9 whole entry): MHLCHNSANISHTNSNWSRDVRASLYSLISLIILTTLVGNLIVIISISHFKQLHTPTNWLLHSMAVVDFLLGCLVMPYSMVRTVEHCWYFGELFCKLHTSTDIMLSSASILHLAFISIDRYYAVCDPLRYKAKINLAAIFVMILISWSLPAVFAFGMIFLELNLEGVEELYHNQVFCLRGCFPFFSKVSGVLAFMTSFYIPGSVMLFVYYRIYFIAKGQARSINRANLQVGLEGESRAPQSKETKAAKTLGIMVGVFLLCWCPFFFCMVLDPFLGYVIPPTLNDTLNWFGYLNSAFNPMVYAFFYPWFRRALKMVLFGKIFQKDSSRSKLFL
Compound,Ki (rat TAAR1),Ki (mouse TAAR1)
"O=C(Nc1ccc(Cl)nc1)c1ccc(OC2CNC2)cc1Cl [Example 53, 4-(azetidin-3-yloxy)-2-chloro-N-(6-chloro-3-pyridyl)benzamide]",2.43 µM,55.2 nM
"COc1ccc(NC(=O)Nc2ccc(CC3(F)CNC3)cc2)cc1 [Example 106, 1-[4-[(3-fluoroazetidin-3-yl)methyl]phenyl]-3-(4-methoxyphenyl)urea]",0.0239 µM,1.9 nM
"CCc1n[nH]c(C(=O)Nc2ccc(OC3CNC3)cc2)c1Br [Example 47, N-[4-(azetidin-3-yloxy)phenyl]-4-bromo-3-ethyl-1H-pyrazole-5-carboxamide]",0.0468 µM,3.9 nM
"CCOc1ccc(C(=O)Nc2ccc(OC3CNC3)cc2)nn1 [Example 76, N-[4-(azetidin-3-yloxy)phenyl]-6-ethoxy-pyridazine-3-carboxamide]",0.167 µM,54 nM
"O=C(Nc1cc(F)c(C=C2CNC2)c(F)c1)c1ccc(Cl)nc1 [Example 84, N-(4-(azetidin-3-ylidenemethyl)-3,5-difluorophenyl)-6-chloronicotinamide]",0.0014 µM,3.3 nM
"FC(F)(F)c1cnc(Nc2ccc(OC3CNC3)cc2)nc1 [Example 9, N-(4-(azetidin-3-yloxy)phenyl)-5-(trifluoromethyl)pyrimidin-2-amine]",0.105 µM,47.7 nM
"CN(c1ccc(NC(=O)c2ccnc(C(F)(F)F)c2)cc1)C1CNC1 [Example 2, N-[4-[azetidin-3-yl(methyl)amino]phenyl]-2-(trifluoromethyl)pyridine-4-carboxamide]",0.211 µM,27.2 nM
"CCc1n[nH]c(C(=O)Nc2ccc(C[C@@H]3NC[C@@H]3F)cc2)c1C [Example 102, 3-ethyl-N-(4-(((2S,3S)-3-fluoroazetidin-2-yl)methyl)phenyl)-4-methyl-1H-pyrazole-5-carboxamide]",0.0875 µM,14.8 nM
"CCc1n[nH]c(C(=O)Nc2ccc(CC3(F)CNC3)cc2)c1Cl [Example 66, 4-chloro-3-ethyl-N-[4-[(3-fluoroazetidin-3-yl)methyl]phenyl]-1H-pyrazole-5-carboxamide]",0.0824 µM,323 nM
"c1ccc(C[C@H]2CCN2)cc1 [Example 89, (S)-2-benzylazetidine]",0.0822 µM,1520 nM
"O=C(NCc1ccc(F)cc1)c1ccc(OC2CNC2)cc1 [Example 18, 4-(azetidin-3-yloxy)-N-[(4-fluorophenyl)methyl]benzamide]",1.63 µM,109 nM
"O=C(Nc1ccc(CC2(F)CNC2)cc1)c1cnc(C(F)(F)F)nc1 [Example 55, N-[4-[(3-fluoroazetidin-3-yl)methyl]phenyl]-2-(trifluoromethyl)pyrimidine-5-carboxamide]",0.0059 µM,16.1 nM
"O=C(Nc1ccc(SC2CNC2)cc1)c1cnc(C2CC2)nc1 [Example 44, N-[4-(azetidin-3-ylsulfanyl)phenyl]-2-cyclopropyl-pyrimidine-5-carboxamide]",0.165 µM,8.5 nM
"O=C(Nc1ccc(C[C@@H]2CCN2)cc1)c1ccc(Cl)nc1 [Example 79, N-[4-[[(2R)-azetidin-2-yl]methyl]phenyl]-6-chloro-pyridine-3-carboxamide]",0.348 µM,10 nM
"O=C(Nc1ccc(CC2(F)CNC2)cc1)Nc1cccc(Cl)c1 [Example 107, 1-(3-chlorophenyl)-3-[4-[(3-fluoroazetidin-3-yl)methyl]phenyl]urea]",0.0026 µM,2.5 nM
"O=C(Nc1ccc(C=C2CNC2)cc1)Nc1ccc(C(F)(F)F)cc1 [Example 116, 1-[4-(azetidin-3-ylidenemethyl)phenyl]-3-[4-(trifluoromethyl)phenyl]urea]",0.0016 µM,3.7 nM

Compound,Ki (rat TAAR1),Ki (mouse TAAR1)
"CC(C)(C)c1n[nH]c(C(=O)Nc2ccc(OC3CNC3)cc2)c1Cl [Example 32, N-[4-(azetidin-3-yloxy)phenyl]-3-tert-butyl-4-chloro-1H-pyrazole-5-carboxamide]",0.0145 µM,13.4 nM
"Cn1nc(C(F)(F)F)cc1C(=O)Nc1ccc(OC2CNC2)cc1 [Example 17, N-[4-(azetidin-3-yloxy)phenyl]-2-methyl-5-(trifluoromethyl)pyrazole-3-carboxamide]",0.0969 µM,72.9 nM
"FC(F)(F)c1nccc(Nc2ccc(OC3CNC3)cc2)n1 [Example 8, N-[4-(azetidin-3-yloxy)phenyl]-2-(trifluoromethyl)pyrimidin-4-amine]",0.165 µM,55 nM
"O=C(Nc1ccc(CC2(F)CNC2)cc1)c1ccc(Cl)cc1 [Example 52, 4-chloro-N-[4-[(3-fluoroazetidin-3-yl)methyl]phenyl]benzamide]",0.0035 µM,0.9 nM
"O=C(Nc1ccc(C=C2CNC2)cc1)Nc1cccc(Cl)c1 [Example 118, 1-[4-(azetidin-3-ylidenemethyl)phenyl]-3-(3-chlorophenyl)urea]",0.0021 µM,3.8 nM
"O=C(Nc1ccc(C[C@@H]2NC[C@@H]2F)cc1)c1ccnc(C(F)(F)F)c1 [Example 104, N-(4-(((2S,3S)-3-fluoroazetidin-2-yl)methyl)phenyl)-2-(trifluoromethyl)isonicotinamide]",0.0231 µM,10.8 nM
"CC(C)c1cc(C(=O)Nc2ccc(C[C@@H]3NC[C@@H]3F)cc2)n(C)n1 [Example 131, N-(4-(((2S,3S)-3-fluoroazetidin-2-yl)methyl)phenyl)-3-isopropyl-1-methyl-1H-pyrazole-5-carboxamide]",0.126 µM,119 nM
"CCc1n[nH]c(C(=O)Nc2cc(F)c(C=C3CNC3)c(F)c2)c1C [Example 83, N-(4-(azetidin-3-ylidenemethyl)-3,5-difluorophenyl)-3-ethyl-4-methyl-1H-pyrazole-5-carboxamide]",0.0009 µM,16.7 nM
"O=C(Nc1ccc(C=C2CNC2)cc1)c1ccnc(C(F)(F)F)c1 [Example 60, N-[4-(azetidin-3-ylidenemethyl)phenyl]-2-(trifluoromethyl)pyridine-4-carboxamide]",0.0099 µM,8.4 nM
"O=C(Nc1ccc(CC2CNC2)cc1)Nc1ccc(C(F)(F)F)cc1 [Example 113, 1-[4-(azetidin-3-ylmethyl)phenyl]-3-[4-(trifluoromethyl)phenyl]urea]",0.0042 µM,8.7 nM
"O=C(Nc1ccc(SC2CNC2)cc1)c1[nH]nc(C2CC2)c1Cl [Example 35, N-[4-(azetidin-3-ylsulfanyl)phenyl]-4-chloro-3-cyclopropyl-1H-pyrazole-5-carboxamide]",0.0466 µM,3.1 nM
"O=C(Nc1ccc(NC2CNC2)cc1)c1ccnc(C(F)(F)F)c1 [Example 3, N-[4-(azetidin-3-ylamino)phenyl]-2-(trifluoromethyl)pyridine-4-carboxamide]",0.66 µM,77.7 nM
"COc1ccc(NC(=O)Nc2ccc(OC3CNC3)cc2)cc1 [Example 108, 1-[4-(azetidin-3-yloxy)phenyl]-3-(4-methoxyphenyl)urea]",0.0269 µM,108 nM
"O=C(Nc1ccc(OC2CNC2)cc1)Nc1cccc(Cl)c1 [Example 109, 1-[4-(azetidin-3-yloxy)phenyl]-3-(3-chlorophenyl)urea]",0.003 µM,4.6 nM
"CO[C@@H]1CN[C@H]1Cc1ccccc1 [Example 95, (2S,3R)-2-benzyl-3-methoxyazetidine]",0.648 µM,2770 nM
